Measurements published in patent publication US9540392B2, “Thienopyrimidines” (BAYER PHARMA AKTIENGESELLSCHAFT, priority 2012, dated 2017).

These compounds were tested against T1, human full-length MKNK1 (Homo sapiens, UniProt Q9BUB5, T385D) (assay: MKNK1 kinase high ATP assay (TR-FRET)). Conditions: 2 mM ATP, after preincubation with MKNK1; read-out: MKNK1 IC50 (MKNK1 high ATP).
T1 construct: GST (N); purchased Carna Biosciences 02-145; host or cells: insect cells (baculovirus expression system)
T1 sequence (Q9BUB5 1-424 isoform Q9BUB5-2 T344D): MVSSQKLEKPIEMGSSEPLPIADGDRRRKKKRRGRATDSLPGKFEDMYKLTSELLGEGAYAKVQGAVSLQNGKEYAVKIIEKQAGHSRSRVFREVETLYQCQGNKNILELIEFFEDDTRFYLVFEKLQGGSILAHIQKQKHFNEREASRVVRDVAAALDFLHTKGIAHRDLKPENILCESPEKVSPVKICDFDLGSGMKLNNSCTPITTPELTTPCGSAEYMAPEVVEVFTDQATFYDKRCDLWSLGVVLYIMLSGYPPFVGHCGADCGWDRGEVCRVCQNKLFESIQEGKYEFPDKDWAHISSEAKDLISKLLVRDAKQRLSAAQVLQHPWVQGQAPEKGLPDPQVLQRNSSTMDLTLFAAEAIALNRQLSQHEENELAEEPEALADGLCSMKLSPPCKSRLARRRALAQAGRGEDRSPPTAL
Assay type: biochemical
Method: MKNK1-inhibitory activity at high ATP of compounds of the present invention after their preincubation with MKNK1 was quantified employing the TR-FRET-based MKNK1 high ATP assay as described in the following paragraphs.
As substrate for the kinase reaction the biotinylated peptide biotin-Ahx-[…] (C-terminus in amide form) was used, which can be purchased e.g. from the company Biosyntan (Berlin-Buch, Germany).
For the assay 50 nL of a 100 fold concentrated solution of the test compound in DMSO was pipetted into a black low volume 384 well microtiter plate (Greiner Bio-One, Frickenhausen, Germany), 2 μL of a solution of MKNK1 in aqueous assay buffer [50 mM HEPES pH 7.5, 5 mM MgCl2, 1.0 mM dithiothreitol, 0.005% (v/v) Nonidet-P40 (Sigma)] was added and the mixture was incubated for 15 min at 22° C. to allow pre-binding of the test compounds to the enzyme before the start of the kinase reaction. Then the kinase reaction was started by the addition of 3 μL of a solution of adenosine-tri-phosphate (ATP, 3.3 mM=>final conc. in the 5 μL assay volume is 2 mM) and substrate (0.1 μM=>final conc. in the 5 μL assay volume is 0.06 μM) in assay buffer and the resulting mixture was incubated for a reaction time of 30 min at 22° C. The concentration of MKNK1 was adjusted depending of the activity of the enzyme lot and was chosen appropriate to have the assay in the linear range, typical concentrations were in the range of 0.003 μg/mL. The reaction was stopped by the addition of 5 μL of a solution of TR-FRET detection reagents (5 nM streptavidine-XL665 [Cisbio Bioassays, Codolet, France] and 1 nM anti-ribosomal protein S6 (pSer236)-antibody from Invitrogen [#44921G] and 1 nM LANCE EU-W1024 Labeled ProteinG [Perkin-Elmer, product no. AD0071]) in an aqueous EDTA-solution (100 mM EDTA, 0.1% (w/v) bovine serum albumin in 50 mM HEPES pH 7.5).
The resulting mixture was incubated for 1 h at 22° C. to allow the formation of complex between the phosphorylated biotinylated peptide and the detection reagents. Subsequently the amount of phosphorylated substrate was evaluated by measurement of the resonance energy transfer from the Eu-chelate to the streptavidine-XL. Therefore, the fluorescence emissions at 620 nm and 665 nm after excitation at 350 nm were measured in a TR-FRET reader, e.g. a Rubystar (BMG Labtechnologies, Offenburg, Germany) or a Viewlux (Perkin-Elmer). The ratio of the emissions at 665 nm and at 622 nm was taken as the measure for the amount of phosphorylated substrate.
With `N#Cc1ccccc1N1CCN(C(=O)C2CCc3c(sc4ncnc(Nc5ccc6[nH]ncc6c5)c34)C2)CC1` (racemic) [Example 115, (RS)-2-(4-{[4-(1H-indazol-5-ylamino)-5,6,7,8-tetrahydro[1]benzothieno[2,3-d]pyrimidin-7-yl]carbonyl}piperazin-1-yl)benzonitrile] the IC50 was 15.3 nM. Compound `O=C(C1CCc2c(sc3ncnc(Nc4ccc5[nH]ncc5c4)c23)C1)N1CC[C@@H](O)C1` (mixture of isomers) [Example 134, (RS)-(3-hydroxypyrrolidin-1-yl)[4-(1H-indazol-5-ylamino)-5,6,7,8-tetrahydro[1]benzothieno[2,3-d]pyrimidin-7-yl]methanone] has an IC50 of 12.7 nM. For `O=C(Nc1ccccn1)C1CCc2c(sc3ncnc(Nc4ccc5[nH]ncc5c4)c23)C1` (racemic) [Example 99, (RS)-4-(1H-indazol-5-ylamino)-N-(pyridin-2-yl)-5,6,7,8-tetrahydro[1]benzothieno[2,3-d]pyrimidine-7-carboxamide], the IC50 was 27.7 nM. In the case of `O=C(C1CCc2c(sc3ncnc(Nc4ccc5[nH]ncc5c4)c23)C1)N1CCN(Cc2cccnc2)CC1` (racemic) [Example 155, (RS)-[4-(1H-indazol-5-ylamino)-5,6,7,8-tetrahydro[1]benzothieno[2,3-d]pyrimidin-7-yl][4-(pyridin-3-ylmethyl)piperazin-1-yl]methanone], the IC50 is reported as 18.3 nM. `CC(=O)N[C@@H]1CCN(C(=O)C2CCc3c(sc4ncnc(Nc5ccc6[nH]ncc6c5)c34)C2)C1` (mixture of isomers) [Example 124, (RS)-N-(1-{[4-(1H-indazol-5-ylamino)-5,6,7,8-tetrahydro[1]benzothieno[2,3-d]pyrimidin-7-yl]carbonyl}pyrrolidin-3-yl)acetamide] was tested, and the IC50 was 8 nM. Work on `CCOc1cc2[nH]ncc2cc1Nc1ncnc2sc3c(c12)CCC(C(=O)N1CCC2(CC2)C1)C3` (racemic) [Example 274, (RS)-5-Azaspiro[2.4]hept-5-yl{4-[(6-ethoxy-1H-indazol-5-yl)amino]-5,6,7,8-tetrahydro[1]benzothieno[2,3-d]pyrimidin-7-yl}methanone] yielded an IC50 of 1 nM. `NS(=O)(=O)c1ccc(CNC(=O)C2CCc3c(sc4ncnc(Nc5ccc6[nH]ncc6c5)c34)C2)cc1` (racemic) [Example 121, (RS)-4-(1H-indazol-5-ylamino)-N-(4-sulfamoylbenzyl)-5,6,7,8-tetrahydro[1]benzothieno[2,3-d]pyrimidine-7-carboxamide] gave an IC50 of 4 nM. `CC(C)Oc1cc2[nH]ncc2cc1Nc1ncnc2sc3c(c12)CCC(C(=O)N1CCCC1)C3` (racemic) [Example 221, (RS)-(4-{[6-(Propan-2-yloxy)-1H-indazol-5-yl]amino}-5,6,7,8-tetrahydro[1]benzothieno[2,3-d]pyrimidin-7-yl)(pyrrolidin-1-yl)methanone] showed an IC50 of 0.7 nM. Work on `O=C(NCCN1CCNC1=O)C1CCc2c(sc3ncnc(Nc4ccc5[nH]ncc5c4)c23)C1` (racemic) [Example 125, (RS)-4-(1H-indazol-5-ylamino)-N-[2-(2-oxoimidazolidin-1-yl)ethyl]-5,6,7,8-tetrahydro[1]benzothieno[2,3-d]pyrimidine-7-carboxamide] yielded an IC50 of 10.5 nM. For `COc1cc2[nH]ncc2cc1Nc1ncnc2sc3c(c12)CCC(C(=O)N(C)C1CC1)C3` (racemic) [Example 181, (RS)—N—Cyclopropyl-4-[(6-methoxy-1H-indazol-5-yl)amino]-N-methyl-5,6,7,8-tetrahydro[1]benzothieno[2,3-d]pyrimidine-7-carboxamide], the IC50 was 0.2 nM. In the case of `CCOC(=O)C1CCc2c(sc3ncnc(Nc4ccc5[nH]ncc5c4C)c23)C1` (racemic) [Example 60, (RS)-Ethyl 4-[(4-methyl-1H-indazol-5-yl)amino]-5,6,7,8-tetrahydro[1]benzothieno[2,3-d]pyrimidine-7-carboxylate], the IC50 is reported as 2180 nM. `CN(Cc1cnn(C)c1)C(=O)C1CCc2c(sc3ncnc(Nc4ccc5[nH]ncc5c4)c23)C1` (racemic) [Example 157, (RS)-4-(1H-indazol-5-ylamino)-N-methyl-N-[(1-methyl-1H-pyrazol-4-yl)methyl]-5,6,7,8-tetrahydro[1]benzothieno[2,3-d]pyrimidine-7-carboxamide] was tested, and the IC50 was 38.1 nM. `O=C(C1CCc2c(sc3ncnc(Nc4ccc5[nH]ncc5c4)c23)C1)N1CCN(C2CCCC2)CC1` (racemic) [Example 131, (RS)-(4-cyclopentylpiperazin-1-yl)[4-(1H-indazol-5-ylamino)-5,6,7,8-tetrahydro[1]benzothieno[2,3-d]pyrimidin-7-yl]methanone] showed an IC50 of 13.5 nM. `CN(C(=O)C1CCc2c(sc3ncnc(Nc4ccc5[nH]ncc5c4)c23)C1)c1ccccc1` (racemic) [Example 91, (RS)-4-(1H-indazol-5-ylamino)-N-methyl-N-phenyl-5,6,7,8-tetrahydro[1]benzothieno[2,3-d]pyrimidine-7-carboxamide] showed an IC50 of 6.6 nM. `O=C(C1CCc2c(sc3ncnc(Nc4ccc5[nH]ncc5c4)c23)C1)N1CCC(O)(C(F)(F)F)CC1` (racemic) [Example 194, (RS)-[4-hydroxy-4-(trifluoromethyl)piperidin-1-yl][4-(1H-indazol-5-ylamino)-5,6,7,8-tetrahydro[1]benzothieno[2,3-d]pyrimidin-7-yl]methanone] showed an IC50 of 12 nM. Work on `CN(C)CCN(C)C(=O)C1CCc2c(sc3ncnc(Nc4ccc5[nH]ncc5c4)c23)C1` (stereo not drawn) [Example 45, N-[2-(Dimethylamino)ethyl]-4-(1H-indazol-5-ylamino)-N-methyl-5,6,7,8-tetrahydro[1] benzothieno [2,3-d]pyrimidine-7-carboxamide] yielded an IC50 of 9 nM. `O=C(C1CCc2c(sc3ncnc(Nc4ccc5[nH]ncc5c4)c23)C1)N1CCOCC1` (stereo not drawn) [Example 47, [4-(1H-Indazol-5-ylamino)-5,6,7,8-tetrahydro[1]benzothieno [2,3-d]pyrimidin-7-yl](morpholin-4-yl)methanone] gave an IC50 of 11 nM. Compound `CCN(CCO)C(=O)C1CCc2c(sc3ncnc(Nc4cc5cn[nH]c5cc4OC)c23)C1` (racemic) [Example 171, (RS)—N-Ethyl-N-(2-hydroxyethyl)-4-[(6-methoxy-1H-indazol-5-yl)amino]-5,6,7,8-tetrahydro[1]benzothieno[2,3-d]pyrimidine-7-carboxamide] has an IC50 of 0.4 nM. Work on `CC(C)Oc1cc2[nH]ncc2cc1Nc1ncnc2sc3c(c12)CCC(C(=O)N1CC2(CCO2)C1)C3` (racemic) [Example 259, (RS)-{4-[(6-Isopropoxy-1H-indazol-5-yl)amino]-5,6,7,8-tetrahydro[1]benzothieno[2,3-d]pyrimidin-7-yl}(1-oxa-6-azaspiro[3.3]hept-6-yl)methanone] yielded an IC50 of 1.9 nM. `CCOC(=O)C1CCc2c(sc3ncnc(Nc4ccc5[nH]nc(C)c5c4)c23)C1` (racemic) [Example 61, (RS)-Ethyl 4-[(3-methyl-1H-indazol-5-yl)amino]-5,6,7,8-tetrahydro[1]benzothieno[2,3-d]pyrimidine-7-carboxylate] gave an IC50 of 1020 nM. Compound `Cn1cc(CNC(=O)C2CCc3c(sc4ncnc(Nc5ccc6[nH]ncc6c5)c34)C2)cn1` (racemic) [Example 158, (RS)-4-(1H-indazol-5-ylamino)-N-[(1-methyl-1H-pyrazol-4-yl)methyl]-5,6,7,8-tetrahydro[1]benzothieno[2,3-d]pyrimidine-7-carboxamide] has an IC50 of 16.5 nM. In the case of `COc1cc2[nH]ncc2cc1Nc1ncnc2sc3c(c12)CCC(C(=O)N(C)C(C)C)C3` (racemic) [Example 173, (RS)—N—Isopropyl-4-[(6-methoxy-1H-indazol-5-yl)amino]-N-methyl-5,6,7,8-tetrahydro[1]benzothieno[2,3-d]pyrimidine-7-carboxamide], the IC50 is reported as 0.5 nM. In the case of `Cc1ccc(CNC(=O)C2CCc3c(sc4ncnc(Nc5ccc6[nH]ncc6c5)c34)C2)cc1` (stereo not drawn) [Example 27, 4-(1H-Indazol-5-ylamino)-N-(4-methylbenzyl)-5,6,7,8-tetrahydro[1] benzothieno [2,3-d]pyrimidine-7-carboxamide], the IC50 is reported as 3 nM. Compound `COc1cc2[nH]ncc2cc1Nc1ncnc2sc3c(c12)CCC(C(=O)N1CC(C#N)C1)C3` (racemic) [Example 237, (RS)-1-({4-[(6-Methoxy-1H-indazol-5-yl)amino]-5,6,7,8-tetrahydro[1]benzothieno[2,3-d]pyrimidin-7-yl}carbonyl)azetidine-3-carbonitrile] has an IC50 of 0.3 nM.
